# Assay results published in patent publication US7098241B2, “Thiophene hydroxamic acid derivatives” (Hoffmann-La Roche Inc., priority 2002, dated 2006).
# How the values were obtained:
# recombinant HDAC-1 = biological target: T1, recombinant HDAC-1 (Homo sapiens, UniProt Q13547); experiment: HDAC biochemical quench assay; conditions: recombinant HDAC-1 purified from HEK 293 cells, 1 uM peptide substrate, 90 min at room temperature
# T1 construct: made in house; host or cells: HEK 293 cells
# Text: The function of histone deacetylase (HDAC) is the deacetylation of lysines in e.g. histone H4. A peptide of 17 amino acids derived from histone H4 was labeled with TAMRA at the C-terminus and QSY-7 at the N-terminus and was used as a substrate (TAMRA-first17 aa of histone H4-QSY7). Following deacetylation by HDAC, the enzyme Lys C is able to cleave the peptide after lysine. […] Inhibition of HDAC by compounds results in low signals because Lys C could not cleave the substrate and the quench effect persists.
# For dose response curves, 10 concentrations were diluted 1:3 starting at 30 uM. 10 ul compound dilution were put into each well of a 384 well plate. 10 ul HDAC were added (recombinant HDAC-1 purified from HEK 293 cells; enzyme activity has to be assessed for each preparation). 10 ul peptide substrate was added (1 uM final concentration, derived from 1 mM stock solution diluted 1:1000 in test buffer). After 90 min incubation at room temperature, the reaction was stopped by addition of 20 ul test buffer including 3 ug/ml Lys C and 0.075% SDS. After overnight incubation the fluorescence signal of TAMRA was measured (Victor 2 from Wallac, absorption 544 nm, emission 590 nm). The O.D. of DMSO-treated control wells is 100%, the % inhibition of compound treated wells is calculated in relation to 100%. Based on 10 concentrations a IC50 curve is generated by using XL.fit3.
# Test buffer used: a mixture of 10 mM Hepes pH8, 10 mM NaCl, 10% Glycerol, 0.005% Triton X100, 0.1 mM EDTA, 0.1 mM TCEP. As plates were used 384 well plates (black, Greiner, 781077).
# [1] = test system: HT-29 cells (human colon carcinoma cell line); experiment: MTT anti-proliferation assay on HT-29 cells; type: cell-based; conditions: Homo sapiens, 120 h, 384 well plates, 5 days, read-out: IC50 HT29 384
# Text: MTT (3-(4,5-dimethylthiazol-2-yl)-2,5-diphenyl tetrazolium bromide) is widely used for the quantitative determination of cytotoxic effects or in vitro chemosensitivity of tumor cells. The assay is based on the cleavage of the yellow tetrazolium salt (MTT) to purple formazan crystals by metabolic active cells. For details, see Rubinstein, L. V., et al., J. Natl. Cancer Inst. 82 (1990) 1113.
# We proceeded as follows: HT-29 cells (human colon carcinoma cell line) were cultivated in RPMI 1640, 2.5% FCS, 2 mM glutamine, 100 u/ml penicillin, 100 ug/ml streptomycin. For the assay the cells were seeded in 384 well plates, 900 cells per well, in the same medium. At the next day, the compounds (dissolved 10 mM in DMSO) were added in various concentrations ranging from 30 uM to 1.5 nM. After 5 days, the MTT assay was done mainly according to the instructions of the manufacturer (Cell proliferation kit I, MTT, from Roche Molecular Biochemicals). In brief: MTT labeling reagent was added to a final concentration of 0.5 mg/ml, added and incubated for 4 hrs at 37° C., 5% CO2. During this incubation time purple formazan crystals are formed. After addition of the solubilization solution (20% SDS in 0.02 M HCl) the plates were incubated overnight at 37° C., 5% CO2. After careful mixing, the plates were measured in Victor 2 (scanning multiwell spectrophotometer, Wallac) at 550 nm.
# A decrease in number of living cells results in a decrease in the total metabolic activity in the sample. The decrease directly correlates to the amount of purple color resulting from the solubilization of the purple formazan crystals. Determination of IC50 was done using XL-fit.
# T1 sequence (Q13547 whole entry, species assumed): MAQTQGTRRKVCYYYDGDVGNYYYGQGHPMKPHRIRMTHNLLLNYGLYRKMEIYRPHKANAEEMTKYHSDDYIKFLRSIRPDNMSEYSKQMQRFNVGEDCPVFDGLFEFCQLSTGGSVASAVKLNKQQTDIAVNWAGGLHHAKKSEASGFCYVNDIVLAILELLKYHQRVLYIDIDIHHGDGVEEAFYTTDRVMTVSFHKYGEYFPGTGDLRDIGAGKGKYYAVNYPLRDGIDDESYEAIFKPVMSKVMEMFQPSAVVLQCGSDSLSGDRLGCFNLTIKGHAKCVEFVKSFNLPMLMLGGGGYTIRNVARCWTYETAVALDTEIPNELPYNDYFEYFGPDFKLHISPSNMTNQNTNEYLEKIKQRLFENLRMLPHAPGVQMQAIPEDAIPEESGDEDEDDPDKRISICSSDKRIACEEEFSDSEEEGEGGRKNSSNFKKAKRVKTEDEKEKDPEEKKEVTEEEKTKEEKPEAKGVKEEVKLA
IC50 (recombinant HDAC-1) [nM],IC50 [1] [nM],SMILES
1.38,300,"O=C(NO)c1ccc(C(=O)N[C@@H]2CCc3ccccc32)s1 [Example 2m, (R)-thiophene-2,5-dicarboxylic acid 2-hydroxyamide 5-indan-1-ylamide]"
3.88,80,"C[C@@H](NC(=O)c1ccc(C(=O)NO)s1)c1ccc(Br)cc1 [Example 2d, (R)-thiophene-2,5-dicarboxylic acid 2-{[1-(4-bromo-phenyl)-ethyl]-amide}5-hydroxyamide]"
4.04,160,"COC[C@@H](NC(=O)c1ccc(C(=O)NO)s1)c1ccccc1 [Example 4l, (S)-thiophene-2,5-dicarboxylic acid 2-hydroxyamide 5-[(2-methoxy-1-phenyl-ethyl)-amide]]"
